Results as given in patent US20120231083A1, “SUSTAINED RELEASE CANNABINOID MEDICAMENTS” (The Board of Trustees of the University of Illinois, priority 2010, published 2012).
Read-outs that look alike come from different tables or passages of the source.

What was measured:
[1] = described in US 2007/0072939; not shown for sleep related disorders; cited from earlier work
[2] = cited from earlier work
[3] = in vivo; cited from earlier work
rat model of sleep apnea = conditions: 10 mg/kg intraperitoneal, US 2004/0127572; cited from earlier work
subjects = experiment: Oral dosing comparator 1: single immediate release dosage, AHI; assay type: in vivo, human
Experimental: (§1) For the purpose of comparing oral medicaments (i.e., providing a comparator), a medicament is orally administered to one or more subjects. The various factors affecting ADME (absorption, distribution, metabolism, and excretion) of the drug are standardized. For example, the patient is optionally a fasted patient and optionally falls asleep within one of 15 minutes or 30 minutes of laying down for bed. The same subjects are used for comparing different medicaments (after providing an appropriate wash-out period).
(§2) Plasma levels of the drug (e.g. THC) and metabolites thereof (e.g. 11-OH-THC) are taken at regular intervals (e.g. every 30 minutes) during a treatment window (e.g. from T0 to T8hr).
(§3) Therapeutic responses are recorded throughout the entire treatment window.
(§4) Therapeutic responses are correlated with pharmacokinetic parameters of the drug or metabolites thereof. The pharmacokinetic parameters include one or more of: plasma concentration and AUC (at various times).
An oral dosing “comparator” is provided by orally administering an immediate release dosage of cannabinoid (e.g. MARINOL® soft gel).

sleep apnea patient = experiment: Oral dosing comparator 2: two immediate release dosages in succession (T0 and T3), AHI; assay type: in vivo, human; conditions: immediate release dosages at T0 and T3
Experimental: as §1, §2, §3, §4
A second oral dosing comparator is provided by the method of Example 6, where a first immediate release dosage of cannabinoid (e.g. 2.5 mg MARINOL® soft gel) to a sleep apnea patient 30 minutes before bed at To. The patient is allowed to fall asleep and at a predetermined time, the subject is briefly woken to receive a second immediate release dosage of MARINOL® soft gel (e.g. at T3) and allowed to return to sleep.

Row | Compound | activity compared to the trans-(−)-enantiomer [1] | Side effects with co-administration ([2]; with antipyrine, barbiturates) | Side effects with co-administration ([2]; with atropine, scopolamine, antihistamines, other anticholinergic agents) | Side effects with co-administration ([2]; with barbiturates, benzodiazepines, ethanol, lithium, opioids, buspirone, antihistamines, muscle relaxants, other CNS depressants) | Side effects with co-administration ([2]; with disulfiram, person who smoked marijuana) | Side effects with co-administration ([2]; with fluoxetine 20 mg/day x 4 wks, person, smoking marijuana) | Side effects with co-administration ([2]; with theophylline, smoking of marijuana) | Side Effects, Digestive [3] | Side Effects, Musculoskeletal [3] | Side Effects, Skin and Appendages [3] | Side Effects, Special senses [3] | breathing cessation during non-REM (NREM) sleep (rat model of sleep apnea) | therapeutic window (subjects; lower doses (e.g. 5 mg-20 mg)) | AHI (subjects; subjects receiving 1 to 75 mg) | therapeutic window (sleep apnea patient; lower doses (e.g. 5 mg-20 mg)) | AHI (sleep apnea patient; subjects receiving 1 to 75 mg)
1 | CCCCCc1cc(O)c2c(c1)OC(C)(C)C1CCC(C)=CC21 (single isomer, unassigned) [trans-(+) enantiomer, trans-(+)-THC] | about 1% |  |  |  |  |  |  |  |  |  |  |  |  |  |  | 
2 | CCCCCc1cc(O)c2c(c1)OC(C)(C)[C@@H]1CCC(C)=C[C@@H]21 [Dronabinol, Delta-9-tetrahydrocannabinol] |  | Decreased clearance of these agents, | super-additive tachycardia, drowsiness | Additive drowsiness and CNS depression | reversible hypomanic reaction was reported | became hypomanic after smoking marijuana; | Increased theophylline metabolism reported | Diarrhea*, fecal incontinence. | Myalgias. | Flushing*. | Vision difficulties. | reduced breathing cessation | does not consistently extend through the seventh or eighth hour of sleep | improved | generally extends through the seventh or eighth hour of sleep | improved
